# Patent US5104884A, “Triazolyl quinoline derivatives” (Alkaloida Vegyeszeti Gyar, priority 1985, dated 1992)
# Read-outs that look alike come from different tables or passages of the source.
# Assays:
# [1] = adjuvant induced arthritis in rats, method of Newbold; assay type: in vivo, male Wistar rats; settings: Rattus norvegicus, po, 504 h, read-out: Percental inhibition of the growth of paw volume, on the 21st day; for inhibition in vivo at 25 mg/kg: 25 mg/kg p.o. daily for two weeks
# Description: According to the method of Newbold 0.1 ml of Freund complet adjuvant (Difco Lab. Mich. […] The volume of the hind paws is measured before and 21 days after the administration of the adjuvant with the aid of a mercury plethysmometer. […] In Table II the "percental inhibition of the growth of paw volume" relates to the value determined on the 21st day. […] The tests show furthermore that the compounds of the present invention are active not only in healing morphological deformations but effect in a desirable and useful manner the functional condition and fitness of the feet, moreover the general physical state and condition of the animals, too.
# [2] = hot (56° C.) plate test on mice (analgesic effect); assay type: in vivo, male and female CFLP strain mice; settings: Mus musculus, po, 1 h, read-out: Lengthening of reaction time in %; for change in vivo at 25 mg/kg: 25 mg/kg p.o.; for change in vivo at 50 mg/kg: 50 mg/kg p.o.; for change in vivo at 100 mg/kg: 100 mg/kg p.o.; for change in vivo at 12.5 mg/kg: 12.5 mg/kg p.o.
# Description: The analgesic effect of the compounds of the present invention is tested according to the hot (56° C.) plate test on male and female CFLP strain mice weighing 18-22 g. The point of time of the appearence of the deterring reaction Abwehrreaktion is determined and related to the latent time measured on the control group Woolfe and McDonald 1944. At least 10 animals are used per dose. […] The test is carried out on separated male Wistar rats weighing 180-210 g and fasted for 16 hours. The test compounds are suspended in 1% carboxy methyl cellulose and administered orally in a dose of 10 ml/kg.
# [3] = carrageenin edema inhibition in rats (antiphlogistic effect), Winter method; assay type: in vivo, male Wistar rats; settings: Rattus norvegicus, po; for inhibition in vivo at 12.5 mg/kg: 12.5 mg/kg p.o.; for inhibition in vivo at 25 mg/kg: 25 mg/kg p.o.; for inhibition in vivo at 50 mg/kg: 50 mg/kg p.o.; for inhibition in vivo at 100 mg/kg: 100 mg/kg p.o.
# Description: Thus the orally administered compounds of the general Formula (I) efficiently reduce acute inflammatory processes. According to the method of Winter [Proc. Soc. Exp. Biol. Med. 111, 544 (1962)] carrageenin edema is induced and evaluated on male Wistar rats fasted for 16 hours body weight 160-180 g. Percental inhibition is calculated from the average edema values of the groups treated with the test compound on the one hand and with carrier carboxy methyl cellulose, CMC; control on the other. ED50 values are determined by means of regression analysis of the inhibition values. The test compounds are administered through a stomach canule in the form of a 1% carboxy methyl cellulose (CMC) suspension, one hour before introducing the carrageenin injection.
# [4] = tested on: Erysiphe graminis f. sp. tritici; test: antifungal effect on Erysiphe graminis (powdery mildew on wheat plants, glasshouse); assay type: in vivo; settings: Blumeria graminis; for inhibition at 25 µg/mL: 25 μg/ml; for inhibition at 50 µg/mL: 50 μg/ml; for inhibition at 100 µg/mL: 100 μg/ml; for inhibition at 200 µg/mL: 200 μg/ml; for inhibition at 400 µg/mL: 400 μg/ml; for inhibition at 150 µg/mL: 150 μg/ml
# Description: The compounds of the general Formula (I) are particularly effective against powdery mildew. In Table IV the activity of some compounds of the general […] against Erysiphe graminis f. sp. tritici strain are disclosed.
# The following test method is used: Glasshouse conditions: temperature 20° C.; relative humidity 80%; strength of illumination 6000 lux. The test plants MV-9 Automn wheat are cultivated in pots diameter 20 cm in a 1:1 mixture of sand and perlite. The average number of plants per pot amounts to 180, the height of the plants is 6-7 cm. About 8 ml of the aqueous suspension of the test compound is applied onto the plants with the aid of a sprayer.
# The rate of infectedness is determined after 8 days. Activity is calculated from the percental inhibition values. As control commercial products Fundazol 50 WP and Karathene LC 50 are used.
# [5] = ulcerogenic effect (stomach haemorrhage and ulcers); assay type: in vivo, male Wistar rats; settings: rat, po, acute test, rats, five hours after treatment, read-out: UD50
# Description: Five hours after treatment the animals are sacrificed and their stomachs are placed into a 2.5% formaline solution. The number and rate of punctiform haemorrhage and ulcers is evaluated according to the following scale:
# 1=some punctiform haemorrhage (<10);
# 2=diffuse haemorrhage or small ulcer (<2 mm);
# 3=two or more minor small ulcer (<2 mm);
# 4=one or more large ulcer (>2 mm).
# [6] = rats, read-out: Percental inhibition of paw volume
# [7] = carrageenin edema, rats, p.o., regression analysis, read-out: ED50
# [8] = read-out: Percental inhibition of paw volume
SMILES,inhibition in vivo at 25 mg/kg [1] [%],change in vivo at 25 mg/kg [2] [%],change in vivo at 50 mg/kg [2] [%],change in vivo at 100 mg/kg [2] [%],"inhibition in vivo at 12.5 mg/kg [3, 6] [%]","inhibition in vivo at 25 mg/kg [3, 6] [%]","inhibition in vivo at 50 mg/kg [3, 6] [%]","inhibition in vivo at 100 mg/kg [3, 6] [%]","ED50 [3, 7] [mg/kg]",also measured
Cc1ccc2cc(C)c(Sc3nc[nH]n3)nc2c1 [Compound 109],36.7,–,–,–,–,–,–,–,–,–
Cc1cc(Sc2n[nH]c(C)n2)c2ccc(Cl)c(C)c2n1 [Compound 69],35.2,13,24,30,27,33,52,86,35,–
Cc1ccc2nc(Sc3nc[nH]n3)c(C)cc2c1 [Compound 108],35.2,34,46,46,19,45,61,70,38.5,–
Cc1cc(-n2cncn2)c2cccc(Cl)c2n1 [Compound 10],–,–,–,–,–,–,–,–,–,inhibition at 25 µg/mL [4]: 20.3%; inhibition at 50 µg/mL [4]: 42.8%; inhibition at 100 µg/mL [4]: 76.4%; inhibition at 200 µg/mL [4]: 92.7%; inhibition at 400 µg/mL [4]: 90.1%
"COc1ccc2c(c1)c(CC(=O)O)c(C)n2C(=O)c1ccc(Cl)cc1 [Indomethacin, reference compound]",–,–,–,–,–,–,–,–,–,"TD50 at 5 h [5]: 6.3 mg/kg; ED50 [3]: 4.1 mg/kg; inhibition in vivo at 1 mg/kg [3, 8]: 28%; inhibition in vivo at 2 mg/kg [3, 8]: 40%; inhibition in vivo at 4 mg/kg [3, 8]: 47%; inhibition in vivo at 8 mg/kg [3, 8]: 64%; inhibition in vivo at 12 mg/kg [3, 8]: 67%"
Cc1cc(Sc2n[nH]c(C)n2)c2cccc(C)c2n1 [Compound 64],40.6,17,39,44,15,27,44,65,59.1,–
"CCCCC1C(=O)N(c2ccccc2)N(c2ccccc2)C1=O [Phenylbutazon, reference compound]",–,–,–,29,–,21,42,45,101,"change in vivo at 150 mg/kg ([2]; 150 mg/kg p.o.): 42%; change in vivo at 200 mg/kg ([2]; 200 mg/kg p.o.): 44%; inhibition in vivo at 50 mg/kg ([1]; 50 mg/kg p.o.): 18.5%; inhibition in vivo at 200 mg/kg ([3]; 200 mg/kg p.o., rats, read-out: Percental inhibition of paw volume): 66%"
Cc1cc(Sc2nc[nH]n2)c2cccc(Cl)c2n1 [Compound 46],28.1,7,18,38,–,–,–,–,–,–
Cc1cc(-n2cncn2)c2ccc(Cl)c(Cl)c2n1 [Compound 22],–,–,–,–,–,–,–,–,–,inhibition at 25 µg/mL [4]: 40.8%; inhibition at 50 µg/mL [4]: 67.7%; inhibition at 100 µg/mL [4]: 79.8%; inhibition at 200 µg/mL [4]: 93%; inhibition at 400 µg/mL [4]: 96.9%
Cc1cc2cccc(C)c2nc1Sc1nc[nH]n1 [Compound 110],32.1,21,34,52,10,42,46,61,51.4,–
Cc1cc2ccccc2nc1Sc1nc[nH]n1 [Compound 107],17.8,34,41,88,29,40,70,74,30.6,–
"COc1ccc2cc([C@H](C)C(=O)O)ccc2c1 [Naproxen, reference compound]",28.4,31,45,49,33,49,64,71,28.7,change in vivo at 12.5 mg/kg [2]: 25%; inhibition in vivo at 12.5 mg/kg ([1]; 12.5 mg/kg p.o.): 16.8%
"Cc1cc(-n2cncn2)c2cccc(C)c2n1 [Compound 6, 4-(1H-1,2,4-triazole-1-yl)-2,8-dimethyl-quinoline]",–,–,–,–,–,–,–,–,–,inhibition at 25 µg/mL [4]: 49.2%; inhibition at 50 µg/mL [4]: 71.6%; inhibition at 100 µg/mL [4]: 85.1%; inhibition at 200 µg/mL [4]: 89.5%; inhibition at 400 µg/mL [4]: 99.4%
CCc1nc(Sc2nc3ccc(C)cc3cc2C)n[nH]1 [Compound 138],35.2,25,37,82,–,–,–,–,–,–
Cc1cc(Sc2n[nH]c(C)n2)c2ccccc2n1 [Compound 62],40.3,19,30,38,18,51,59,69,38.4,change in vivo at 12.5 mg/kg [2]: 17%
Cc1nc(Sc2ccnc3cc(Cl)ccc23)n[nH]1 [Compound 61],38.2,20,22,26,29,37,–,58,60.9,–
"Clc1ccc2c(-n3cncn3)ccnc2c1 [Compound 1, 4-(1H-1,2,4-triazole-1-yl)-7-chloro-quinoline]",–,–,–,–,–,–,–,–,–,inhibition at 37.5 µg/mL ([4]; 37.5 μg/ml): 50.6%; inhibition at 50 µg/mL [4]: 72.6%; inhibition at 75 µg/mL ([4]; 75 μg/ml): 83%; inhibition at 100 µg/mL [4]: 85.3%; inhibition at 150 µg/mL [4]: 36.8%; inhibition at 200 µg/mL [4]: 90.1%; inhibition at 400 µg/mL [4]: 99.6%
CCc1nc(Sc2cc(C)nc3ccc(C)cc23)n[nH]1 [Compound 74],–,19,26,43,26,55,69,–,25.7,–
Cc1cc(Sc2n[nH]c(C)n2)c2cccc(C(F)(F)F)c2n1 [Compound 67],32.8,–,–,–,–,–,–,–,–,–
Cc1ccc2cc(C)c(-n3cncn3)nc2c1 [Compound 85],28.4,–,–,–,–,–,–,–,–,–
COc1cccc2c(-n3cncn3)cc(C)nc12 [Compound 8],–,–,–,–,–,–,–,–,–,inhibition at 25 µg/mL [4]: 42.1%; inhibition at 50 µg/mL [4]: 70.9%; inhibition at 100 µg/mL [4]: 82%; inhibition at 150 µg/mL [4]: 84.1%; inhibition at 200 µg/mL [4]: 91.9%; inhibition at 400 µg/mL [4]: 98.8%
"Cc1cc2ccccc2nc1-n1cncn1 [Compound 83, 2-(1H-1,2,4-triazole-1-yl)-3-methyl-quinoline]",46.7,16,28,59,21,63,70,72,28.1,–
